Here are results for eight compounds from US7868135B2, “Compositions of lipopeptide antibiotic derivatives and methods of use thereof” (priority 2003, dated 2011).

Structures are written as SMILES. Starred links: 1 amine or outer side, 2 acyl side, 3 side chain; linkers in the order of their positions; H or OH if unused. Positions of bridges follow the written chain, without caps; N, C: chain ends. Non-standard residues stand in square brackets, D forms with d. Residues, ends and D or L forms follow the SMILES beside them. ξ: configuration not given here. *: point of attachment. X37 = CC(NC(=O)[C@@H](N)CCCCN)C(N[*:1])C(=O)[*:2]; Hexadecanesulfonyl = CCCCCCCCCCCCCCCCS(=O)(=O)*; ξAbu(3ξ-NHCOCH2NH2) = CC(NC(=O)CN)C(N)C(=O)O; ξAbu(βξ-NH2) = CC(N[*:3])C(N[*:1])C(=O)[*:2]; ξAsp(βξ-Me) = CC(C(=O)O)C(N)C(=O)O; ξAbu(3ξ-NH2) = CC(N)C(N)C(=O)O; Lauroyl = CCCCCCCCCCCC(=O)*; X19 = CCCCCCCCCCS(=O)(=O)*; Pip = O=C(O)[CH]1CCCCN1; ξD = NC(CC(=O)O)C(=O)O; ξPip = O=C(O)C1CCCCN1; ξV = CC(C)C(N)C(=O)O; ξP = O=C(O)C1CCCN1

In this assay the test system is Staphylococcus aureus (MSSA). The note with it: 24 h. Put shortly:
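Broth microdilution MIC per NCCLS M7-A6 with doubling serial dilutions, in cation-adjusted Mueller-Hinton broth supplemented with 0.625 mM calcium.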
Take `CCCCCCCCCCCCCCC(=O)NC(CC(=O)O)C(=O)NC1C(=O)N2CCCCC2C(=O)NC(C(C)C(=O)O)C(=O)NC(CC(=O)O)C(=O)NCC(=O)NC(CC(=O)O)C(=O)NCC(=O)NC(C(C)NC(=O)CCCNC(=O)CCCN)C(=O)NC(C(C)C)C(=O)N2CCCC2C(=O)NC1C` (centres unmarked) [Compound 94, C15-Amphomycin-9-GABA-GABA]: the MIC stood at 2 µg/mL.

In the case of `CCCCCCCCCCCCCCC(=O)NC(CC(=O)O)C(=O)NC1C(=O)N2CCCCC2C(=O)NC(C(C)C(=O)O)C(=O)NC(CC(=O)O)C(=O)NCC(=O)NC(CC(=O)O)C(=O)NCC(=O)NC(C(C)NC(=O)[C@@H]2CCCCN2)C(=O)NC(C(C)C)C(=O)N2CCCC2C(=O)NC1C` (some centres unmarked) [Compound 95, C15-Amphomycin-9-hPro], the MIC came to 2 µg/mL.

Regarding `CCCCCCCCCCCCCCC(=O)NC(CC(=O)O)C(=O)NC1C(=O)N2CCCCC2C(=O)NC(C(C)C(=O)O)C(=O)NC(CC(=O)O)C(=O)NCC(=O)NC(CC(=O)O)C(=O)NCC(=O)NC(C(C)NC(=O)[C@H]2CCCCN2)C(=O)NC(C(C)C)C(=O)N2CCCC2C(=O)NC1C` (stereo partly drawn) [Compound 96, C15-Amphomycin-9-(D-Pip)], the MIC turned out to be 1 µg/mL.

For the compound `CCCCCCCCCCCCCCCCS(=O)(=O)NCC(=O)NC(CC(=O)O)C(=O)NC1C(=O)N2CCCCC2C(=O)NC(C(C)C(=O)O)C(=O)NC(CC(=O)O)C(=O)NCC(=O)NC(CC(=O)O)C(=O)NCC(=O)NC(C(C)N)C(=O)NC(C(C)C)C(=O)N2CCCC2C(=O)NC1C` (stereo not drawn) [Compound 99, CH3—(CH2)15—SO2-Gly-Amphomycin] (Hexadecanesulfonyl-GD[ξAbu(βξ-NH2)][Pip][ξAsp(βξ-Me)]DGDG[ξAbu(3ξ-NH2)]VP; lactam 3-C; configuration not given here), the MIC fell in the range of 0.5 to 1 µg/mL.

For the compound `CCCCCCCCCCS(=O)(=O)N[C@@H](Cc1ccccc1)C(=O)NC(CC(=O)O)C(=O)NC1C(=O)N2CCCCC2C(=O)NC(C(C)C(=O)O)C(=O)NC(CC(=O)O)C(=O)NCC(=O)NC(CC(=O)O)C(=O)NCC(=O)NC(C(C)N)C(=O)NC(C(C)C)C(=O)N2CCCC2C(=O)NC1C` (stereo partly drawn) [Compound 100, CH3—(CH2)9—SO2-Phe-Amphomycin] (X19-F[ξD][ξAbu(βξ-NH2)][ξPip][ξAsp(βξ-Me)][ξD]G[ξD]G[ξAbu(3ξ-NH2)][ξV][ξP]; lactam 3-C), the MIC is 4 µg/mL.

Take `CCCCCCCCCCS(=O)(=O)NCC(=O)NC(CC(=O)O)C(=O)NC1C(=O)N2CCCCC2C(=O)NC(C(C)C(=O)O)C(=O)NC(CC(=O)O)C(=O)NCC(=O)NC(CC(=O)O)C(=O)NCC(=O)NC(C(C)NC(=O)[C@@H](N)CCCCN)C(=O)NC(C(C)C)C(=O)N2CCCC2C(=O)NC1C` (stereo partly drawn) [Compound 101, CH3—(CH2)9—SO2-Gly-Amphomycin-9-Lys] (X19-G[ξD][ξAbu(βξ-NH2)][ξPip][ξAsp(βξ-Me)][ξD]G[ξD]G[X37][ξV][ξP]; lactam 3-C): the MIC is 32 µg/mL.

Take `CCCCCCCCCCS(=O)(=O)NCC(=O)NC(CC(=O)O)C(=O)NC1C(=O)N2CCCCC2C(=O)NC(C(C)C(=O)O)C(=O)NC(CC(=O)O)C(=O)NCC(=O)NC(CC(=O)O)C(=O)NCC(=O)NC(C(C)NC(=O)CN)C(=O)NC(C(C)C)C(=O)N2CCCC2C(=O)NC1C` (stereo not drawn) [Compound 102, CH3—(CH2)9—SO2-Gly-Amphomycin-9-Gly] (X19-GD[ξAbu(βξ-NH2)][Pip][ξAsp(βξ-Me)]DGDG[ξAbu(3ξ-NHCOCH2NH2)]VP; lactam 3-C; configuration not given here): the MIC was 8 µg/mL.

Consider `CCCCCCCCCCCC(=O)NCC(=O)NC(CC(=O)O)C(=O)NC1C(=O)N2CCCCC2C(=O)NC(C(C)C(=O)O)C(=O)NC(CC(=O)O)C(=O)NCC(=O)NC(CC(=O)O)C(=O)NCC(=O)NC(C(C)N)C(=O)NC(C(C)C)C(=O)N2CCCC2C(=O)NC1C` (stereo not drawn) [Compound 103, C12-Gly-Amphomycin] (Lauroyl-GD[ξAbu(βξ-NH2)][Pip][ξAsp(βξ-Me)]DGDG[ξAbu(3ξ-NH2)]VP; lactam 3-C; configuration not given here), for which the MIC fell in the range of 8 to 16 µg/mL.

The term MIC denotes the smallest concentration in the dilution series that meets the test's criterion for growth inhibition.
